This note sets out measurements from US11149052B2, “2′3′-cyclic dinucleotides” (Institute of Organic Chemistry and Biochemistry, ASCR, V.V.I, priority 2018, dated 2021).

Molecules are shown by their SMILES. Like-named read-outs stand apart in the source and are kept apart here.

For assay [1], the target named is T1, WT STING (truncated human WT STING protein) (Homo sapiens, UniProt Q86WV6, H232R).
T1 construct: truncated human WT STING or AQ STING (amino acid residues 140-343); 8xHis (N, cleaved yes); SUMO (N, cleaved yes); made in house; host or cells: E. coli Rosetta-gami B (DE3)
In words: Differential Scanning Fluorimetry with WT STING. The settings on record: read-out: DSF ΔTm (° C.) WT STING. It counts as binding. As for the experimental part:
(§1) Purified PCR products were cleaved with restriction enzymes BamHI (cat. #R0136S, NEB, Ipswich, USA) and NotI (cat. #R0189S, NEB, Ipswich, USA) and cloned into the pSUMO vector linearized with the identical enzymes.
(§2) DNase I (cat. #D5025, Sigma Aldrich, Czech Republic) and RNase A (cat. #R6513, Sigma Aldrich, Czech Republic) were added (final concentration […]) together with MgCl2 (final concentration 5 mmol·l^−1) to the homogenate and bacteria were lysed using French Press G-M™ High-Pressure Cell Press Homogenizer (1500 psi, 3 cycles). […] The resin was poured into a chromatography column, washed with 50 ml buffer A (50 mmol·l^−1 TrisCl (pH 8.0), 800 mmol·l^−1 NaCl, 3 mmol·l^−1β-mercaptoethanol; 10% glycerol; 20 mmol·l^−1 imidazole) and 8-His-SUMO tagged STING proteins were eluted with 15 ml buffer A containing 300 mmol·l^−1 imidazole. […] Proteins were concentrated with Amicon® Ultra-15 10 K device (cat. #UFC901008, Merck Millipore, Billerica, USA) and flash frozen in liquid N2.
(§3) Differential Scanning Fluorimetry with WT STING and AQ STING
(§4) 20 μL solutions of the reaction mixtures were pipetted in triplicates into 96 well optical reaction plates and thermal denaturation of samples were performed on real time PCR cycler (LightCycler® 480 Instrument II—Roche, Base^1, Switzerland). The first derivative of the thermal denaturation curves was performed to calculate denaturing temperatures of STING-CDN complexes and STING apoproteins. The thermal shift for each CDN was calculated by subtracting the average denaturing temperature of STING apoprotein from the average denaturing temperature of STING CDN complex.

The target in assay [2] is T2, AQ STING (truncated human STING G230A-R293Q allelic form) (Homo sapiens, UniProt Q86WV6, G230A/H232R/R293Q).
T2 construct: truncated human WT STING or AQ STING (amino acid residues 140-343); 8xHis (N, cleaved yes); SUMO (N, cleaved yes); made in house; host or cells: E. coli Rosetta-gami B (DE3)
Kind of assay: Differential Scanning Fluorimetry with AQ STING. The settings on record: read-out: DSF ΔTm (° C.) AQ STING. It counts as binding. Here is the method: as §1, §2, §3, §4

The target of assay [3] is human wild type STING (WT STING) (Homo sapiens, UniProt Q86WV6, H232R). In words: Digitonin assay using 293T wtSTING-FL reporter cells (ISRE firefly luciferase reporter). It counts as cell-based. The settings on record: 293T wtSTING-FL cells; 30 min in Digitonin buffer, then 5 hours; luciferase read-out; 8-point dose-response curve; read-out: Digitonin assay EC50 (μmol · l^−1) WT STING. The source says:
Two complementary oligonucleotides of the sequence […] […] […] […] […] The oligonucleotides were mixed in equal molar amounts, hybridized, and cleaved by restriction endonucleases HindIII (cat. #. R0104S, NEB, Ipswich, USA) and BglII (cat. #R0144S, NEB, Ipswich, USA). Ultimately, they were ligated into plasmid pGL4.27 (cat. #E6651, Promega, Madison, USA) linearized with the same enzymes. As result the sequence with four ISRE sites was placed upstream of the minimum promoter of firefly luciferase reporter gene.
After 5 minutes incubation at room temperature (RT), 250 μL of the mixture was added dropwise to the cells in one well.
Transfected cells were seeded onto poly-D-lysine coated six well plates at density 50,000 cells per 1 cm^2 in DMEM medium with high glucose containing 10% heat inactivated FBS, 30 μg/mL blasticidin (cat. #ant-bl-05, InvivoGen, San Diego, USA), 0.06 mg/ml Penicillin G and 0.1 mg/ml Streptomycin Sulfate (both cat. #. L0018, Biowest, Riverside, USA). The medium was replenished every 3-4 days until visible colonies of cells resistant to blasticidin were formed.
Blasticidin resistant cells stably expressing WT STING were further transfected with […] plasmid following the same procedure as described above. […] Homogeneous culture of stably double transfected cells was prepared by limiting dilution of cells in 96 well plates and wells with cells were selected that originated from a single cell.
The medium was removed next day and three fold serial dilutions of compounds in Digitonin buffer containing 50 mmol·l^−1 HEPES (cat. #H3375, Sigma Aldrich, Czech Republic) pH 7.0, 100 mmol·l^−1 KCl, 3 mmol·l^−1 MgCl2, 0.1 mmol·l^−1 DTT (cat. #D0632, Sigma Aldrich, Czech Republic), 85 mmol·l^−1 Sucrose (cat. #S7903, Sigma Aldrich, Czech Republic), 0.2% BSA (cat. #A2153, Sigma Aldrich, Czech Republic), 1 mmol·l^−1 ATP (cat. #A1852, Sigma Aldrich, Czech Republic), 0.1 mmol·l^−1 GTP (cat. #G8877, Sigma Aldrich, Czech Republic), and 10 μg/mL Digitonin A (cat. #D141, Sigma Aldrich, Czech Republic) were added to the cells. The buffer was removed after 30 minutes incubation at 37° C. with 5% CO2, the cells were washed once with 100 μl of cultivation medium, and 100 IA of medium was added to each well. The plates with cells were incubated for 5 hours at 37° C. with 5% CO2, 50 μl of the medium was removed and 30 μl of ONE-Glo™ Luciferase Assay System reagent (cat. #E6120, Promega, Madison, USA) was added to each well. Luminesce was read on Synergy H1 (Biotek, Winooski, USA).

The mark [4] stands for this setting: thermal shift vs apoprotein, 150 μM CDN, 0.1 mg/ml STING protein, SYPRO Orange.

human wild type STING (WT STING), sequence (Q86WV6 whole entry H232R): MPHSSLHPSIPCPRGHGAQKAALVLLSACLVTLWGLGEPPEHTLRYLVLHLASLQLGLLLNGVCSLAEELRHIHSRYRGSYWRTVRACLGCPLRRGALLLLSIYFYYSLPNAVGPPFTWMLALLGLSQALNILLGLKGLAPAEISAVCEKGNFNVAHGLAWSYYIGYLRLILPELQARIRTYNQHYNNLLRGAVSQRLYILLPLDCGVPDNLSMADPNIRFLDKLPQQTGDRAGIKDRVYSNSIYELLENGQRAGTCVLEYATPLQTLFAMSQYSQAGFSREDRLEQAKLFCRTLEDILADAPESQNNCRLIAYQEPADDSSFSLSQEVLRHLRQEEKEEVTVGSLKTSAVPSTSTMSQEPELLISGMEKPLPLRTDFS
T2 sequence (Q86WV6 140-343 G230A/H232R/R293Q): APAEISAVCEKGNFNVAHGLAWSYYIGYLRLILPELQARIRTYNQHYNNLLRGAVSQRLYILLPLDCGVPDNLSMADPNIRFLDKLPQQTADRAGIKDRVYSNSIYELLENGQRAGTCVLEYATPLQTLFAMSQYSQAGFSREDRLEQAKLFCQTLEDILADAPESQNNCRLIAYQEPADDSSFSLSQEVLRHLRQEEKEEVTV
T1 sequence (Q86WV6 140-343 H232R): as the sequence (Q86WV6 140-343 G230A/H232R/R293Q) above, with A91G, Q154R counted along it

For the compound `Nc1nc2c(ncn2[C@@H]2O[C@@H]3COP(=O)(O)CO[C@@H]4[C@H](O)[C@@H](COP(=O)(O)O[C@H]3[C@H]2O)O[C@H]4n2cnc3c(N)ncnc32)c(=O)[nH]1` [Example 6, (1R,6S,7R,8R,10R,16R,17R,19R)-8-(2-amino-6-oxo-6,9-dihydro-1H-purin-9-yl)-17-(6-amino-9H-purin-9-yl)-4,7,13,19-tetrahydroxy-3,5,9,12,15,18-hexaoxa-4λ^5,13λ^5-diphosphatricyclo[14.2.1.0^6,^10]nonadecane-4,13-dione], the figures for the shift in melting temperature (ΔTm) at 150 µM in assay [1] (setting [4]) and in assay [2] (setting [4]) were 0.1 °C and 1.2 °C, respectively. The EC50 in assay [3] is more than 50000 nM.
The matching figures for `Nc1nc2c(ncn2[C@@H]2O[C@@H]3COP(=O)(O)CO[C@@H]4[C@H](O)[C@@H](COP(=O)(O)O[C@H]3[C@H]2F)O[C@H]4n2cnc3c(N)ncnc32)c(=O)[nH]1` [Example 7, (1R,6R,7R,8R,10R,16R,17R,19R)-8-(2-amino-6-oxo-6,9-dihydro-1H-purin-9-yl)-17-(6-amino-9H-purin-9-yl)-7-fluoro-4,13,19-trihydroxy-3,5,9,12,15,18-hexaoxa-4λ^5,13λ^5-diphosphatricyclo[14.2.1.0^6,^10]nonadecane-4,13-dione]: 1.8 °C, 8.9 °C and 6100 nM.
As for `Nc1ncnc2c1ncn2[C@@H]1O[C@@H]2COP(=O)(O)O[C@@H]3[C@H](O)[C@@H](COP(=O)(O)CO[C@H]2[C@H]1O)O[C@H]3n1cnc2c(N)ncnc21` [Example 8, (1R,6R,8R,9R,10S,16R,18R,19R)-8,18-bis(6-amino-9H-purin-9-yl)-3,9,13,19-tetrahydroxy-2,4,7,11,14,17-hexaoxa-3λ^5,13λ^5-diphosphatricyclo[14.2.1.0^6,^10]nonadecane-3,13-dione], the ΔTm at 150 µM in assay [1] (setting [4]) came out at 3 °C; in assay [2] (setting [4]), 9.4 °C. Also, the EC50 in assay [3] was found to be 400 nM.
As to `Nc1nc2c(ncn2[C@@H]2O[C@@H]3COP(=O)(O)CO[C@@H]4[C@H](O)[C@@H](COP(=O)(O)CO[C@H]3[C@H]2O)O[C@H]4n2cnc3c(=O)[nH]c(N)nc32)c(=O)[nH]1` [Example 9, (1R,7R,9R,10R,11S,17R,19R,20R)-9,19-bis(2-amino-6-oxo-6,9-dihydro-1H-purin-9-yl)-4,10,14,20-tetrahydroxy-2,5,8,12,15,18-hexaoxa-4λ^5,14λ^5-diphosphatricyclo[15.2.1.0^7,^11]icosane-4,14-dione], the thermal shift (ΔTm) at 150 µM in assay [1] came to 0.3 °C; in assay [2], 1.1 °C. The EC50 in assay [3] is more than 50000 nM.
For `Nc1nc2c(ncn2[C@@H]2O[C@@H]3COP(=O)(O)CO[C@H]4[C@@H](F)[C@H](n5cnc6c(N)ncnc65)O[C@@H]4COP(=O)(O)O[C@@H]2[C@@H]3O)c(=O)[nH]1` [Example 10, (1R,6R,8R,9R,10R,16R,18R,19R)-18-(2-amino-6-oxo-6,9-dihydro-1H-purin-9-yl)-8-(6-amino-9H-purin-9-yl)-9-fluoro-3,13,19-trihydroxy-2,4,7,11,14,17-hexaoxa-3λ^5,13λ^5-diphosphatricyclo[14.2.1.0^6,^10]nonadecane-3,13-dione], the thermal shift (ΔTm) at 150 µM was 20.9 °C in assay [1] (setting [4]) and 27 °C in assay [2] (setting [4]). For the same compound, the half-maximal effective concentration (EC50) in assay [3] was determined as 20 nM.
The matching figures for `Nc1ncnc2c1ncn2[C@@H]1O[C@@H]2COP(=O)(O)O[C@@H]3[C@H](O)[C@@H](COP(=O)(O)CO[C@H]2[C@@H]1O)O[C@H]3n1cnc2c(N)ncnc21` [Example 11, (1R,6R,8R,9S,10S,16R,18R,19R)-8,18-bis(6-amino-9H-purin-9-yl)-3,9,13,19-tetrahydroxy-2,4,7,11,14,17-hexaoxa-3λ^5,13λ^5-diphosphatricyclo[14.2.1.0^6,^10]nonadecane-3,13-dione]: 2.3 °C, 9.1 °C and 2500 nM.
For the compound `Nc1ncnc2c1ncn2[C@@H]1O[C@@H]2COP(=O)(O)CO[C@@H]3[C@@H](O)[C@@H](COP(=O)(O)CO[C@@H]2[C@H]1O)O[C@H]3n1cnc2c(N)ncnc21` [Example 12, (1R,7R,9R,10R,11R,17R,19R,20S)-9,19-bis(6-amino-9H-purin-9-yl)-4,10,14,20-tetrahydroxy-2,5,8,12,15,18-hexaoxa-4λ^5,14λ^5-diphosphatricyclo[15.2.1.0^7,^11]icosane-4,14-dione], the ΔTm at 150 µM in assay [1] (setting [4]) and in assay [2] (setting [4]) was 0 °C each time. Besides, the EC50 in assay [3] is more than 50000 nM.
`Nc1ncnc2c1ncn2[C@@H]1O[C@@H]2COP(=O)(O)CO[C@H]3[C@H](O)[C@@H](COP(=O)(O)CO[C@H]2[C@@H]1O)O[C@H]3n1cnc2c(N)ncnc21` [Example 13, (1S,7R,9R,10S,11S,17R,19R,20R)-9,19-bis(6-amino-9H-purin-9-yl)-4,10,14,20-tetrahydroxy-2,5,8,12,15,18-hexaoxa-4λ^5,14λ^5-diphosphatricyclo[15.2.1.0^7,^11]icosane-4,14-dione]: the shift in melting temperature (ΔTm) at 150 µM is 0 °C in assay [1] (setting [4]) and 0.2 °C in assay [2] (setting [4]). Further, in assay [3], the EC50 is more than 50000 nM.
The matching figures for `Nc1nc2c(ncn2[C@@H]2O[C@@H]3COP(=O)(O)O[C@@H]4[C@H](O)[C@@H](COP(=O)(O)CO[C@H]3[C@H]2F)O[C@H]4n2cnc3c(N)ncnc32)c(=O)[nH]1` [Example 14, (1R,6R,8R,9R,10R,16R,18R,19R)-8-(2-amino-6-oxo-6,9-dihydro-1H-purin-9-yl)-18-(6-amino-9H-purin-9-yl)-9-fluoro-3,13,19-trihydroxy-2,4,7,11,14,17-hexaoxa-3λ^5,13λ^5-diphosphatricyclo[14.2.1.0^6,^10]nonadecane-3,13-dione]: 6.7 °C, 14.2 °C and 80 nM.
For the compound `Nc1nc2c(ncn2[C@@H]2O[C@@H]3COP(=O)(O)CO[C@H]4C[C@H](n5cnc6c(N)ncnc65)O[C@@H]4COP(=O)(O)O[C@@H]2[C@@H]3O)c(=O)[nH]1` [Example 15, (1R,6R,8R,10S,16R,18R,19R)-18-(2-amino-6-oxo-6,9-dihydro-1H-purin-9-yl)-8-(6-amino-9H-purin-9-yl)-3,13,19-trihydroxy-2,4,7,11,14,17-hexaoxa-3λ^5,13λ^5-diphosphatricyclo[14.2.1.0^6,^10]nonadecane-3,13-dione], the thermal shift (ΔTm) at 150 µM is 14.4 °C in assay [1] (setting [4]) and 19.2 °C in assay [2] (setting [4]). Also, the EC50 in assay [3] is 10 nM.
